The values below come from patent publication US9988381B2, “Five-member-heterocycle fused pyridine compounds, method of producing the same, and use thereof” (SHANGHAI INSTITUTE OF MATERIA MEDICA, CHINESE ACADEMY OF …, priority 2013, dated 2018).

One data set has as its system MKN45 cell. The experiment in a line: Test III: growth inhibition of gastric tumor cell MKN45 (SRB). The class given is cell-based. The note with it: Homo sapiens; for inhibition at 0.2 µM: MKN-45, read-out: Cell proliferation inhibition rate at 200 nM (%), MKN45, 200 nM. The method, then: (§1) Assays on the growth inhibition of the compounds against gastric tumor cell MKN45, non-small cell carcinoma EBC-1 cell (both are MET persistent activated cell lines due to MET gene amplification, and are Met dependent tumor cell lines, MKN45 cell was purchased from JCRB, Japan, EBC-1 cell was purchased from ATCC, USA) were detected using sulforhodamine B (SRB) staining. […] After incubation with compound for 72 hours, the incubation was terminated, adherent cells were retained and medium was discarded, 10% (w/v) trichloroacetic acid (100 μL pre well) was added, the cells were fixed at 4° C. for 1 hour, then rinsed with distilled water for 5 times, after dried at room temperature, SRB solution (4 mg/mL, dissolved in 1% glacial acetic acid) was added at 100 μL per well, incubated and stained at room temperature for 15 minutes, then rinsed with 1% glacial acetic acid for 5 times to remove any unbound SRB, dried at room temperature, then 10 mM Tris solution was added at 100 μL per well, the optical density (OD) value at 515 nm was measured using VERSMax microplate reader.
(§2) Experiments were conducted in duplicates. IC50 value was calculated by fitting the data for a four parameter fit using inhibition curve, the results are shown below in Table 2.

The target in data set [1] is T1, c-Met kinase domain recombinant protein (Homo sapiens, UniProt P08581).
T1 construct: 50 μL diluted solution of c-Met kinase domain recombinant protein in reaction buffer was added to initiate the reaction
The experiment in a line: biochemical. The note with it: for inhibition at 0.1 µM: read-out: Average inhibition rate at 0.1 μM (%); for inhibition at 1 µM: read-out: Average inhibition rate at 1 μM (%); for inhibition at 10 µM: read-out: Average inhibition rate at 10 μM (%). The method, boiled down:
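IC50 came from a four-parameter fit of inhibition rates measured by anti-phosphotyrosine (PY99/HRP) ELISA at 490 nm. The reaction ran 1 hour at 37° C with 5 μM ATP, c-Met kinase domain protein and Poly(Glu,Tyr)4:1-coated wells, in HEPES pH 7.4 buffer containing MgCl2, MnCl2, Na3VO4 and DTT.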

Data set [2] deals with T1, c-Met kinase domain recombinant protein. The experiment in a line: biochemical. Particulars: read-out: Inhibition rate at 10 μM (%). In outline:
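Recombinant c-Met kinase domain phosphorylated immobilised Poly(Glu,Tyr)4:1 for 1 h at 37 °C in 50 mM HEPES pH 7.4, 50 mM MgCl2, 0.5 mM MnCl2, 0.2 mM Na3VO4, 1 mM DTT with ATP. Product measured by anti-phosphotyrosine PY99 ELISA (HRP, 490 nm), giving percent inhibition; ATP-free wells served as control.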

Data set [3] has as its system human lung cancer EBC-1 xenograft. The experiment in a line: Test IV: human non-small cell lung cancer EBC-1 xenograft growth in nude mice. The data set is classed as in vivo. The method, then: EBC-1 cells were implanted subcutaneously in the right axilla of nude mice at 5×10^6 cells per mouse, xenograft developed thereby was passaged in nude mice for 3 generations prior to use. Tumor tissue at rapid growth phase was taken, minced under sterile condition into pieces of about 1.5 mm^3, then implanted subcutaneously in the right axilla of nude mice.
Xenografted tumor diameters were measured twice per week, and body weights of the mice were measured at the same time. Tumor Volume (TV) was calculated by the following equation: TV=1/2×a×b^2, wherein a, b refers to the length and width, respectively. Based on the measurement, Relative Tumor Volume (RTV) was calculated by the following equation: RTV=Vt/V0, wherein V0 is the tumor volume measured when divided for administration (i.e., do), Vt is the tumor volume measured at each timepoint.

For a further data set, the system named is EBC-1 cell. The experiment in a line: Test III: growth inhibition of non-small cell carcinoma EBC-1 cell (SRB). The data set is classed as cell-based. Particulars: Homo sapiens, EBC-1, 72 h; for inhibition at 0.2 µM: read-out: Cell proliferation inhibition rate at 200 nM (%); for inhibition at 1 µM: read-out: Cell proliferation inhibition rate at 1 μM (%). The method, then: as §1, §2

Where [4] appears, read: MKN-45, 72 h, read-out: Cell proliferation inhibition rate at 1 μM (%).
Where [5] appears, read: MKN-45, read-out: Cell proliferation inhibition rate at 1 μM (%), MKN45, 1 μM, 72 hours.

Where two headings read alike, the source gives them in different places. A value given as a limit tells only on which side of the number the result lay.

T1 sequence (P08581 1078-1345 limits assumed): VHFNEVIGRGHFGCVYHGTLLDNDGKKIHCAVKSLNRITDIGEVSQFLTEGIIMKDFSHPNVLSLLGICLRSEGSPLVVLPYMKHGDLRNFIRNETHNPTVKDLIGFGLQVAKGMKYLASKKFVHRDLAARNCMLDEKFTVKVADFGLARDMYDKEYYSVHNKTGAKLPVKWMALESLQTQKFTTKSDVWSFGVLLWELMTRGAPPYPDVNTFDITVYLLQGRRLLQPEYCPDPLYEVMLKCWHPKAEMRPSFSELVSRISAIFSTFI

Regarding `Cn1cc(-c2cnc3cnn(S(=O)(=O)c4cnc5ccc(-c6ccsc6)cn45)c3c2)cn1` [Example 72, 1-{[6-(3-thiophene)-imidazo[1,2-a]pyridine]-3-sulfonyl}-6-[(1-methyl)-4-pyrazolyl]-1-H-pyrazolo[4,3-b]pyridine], in the data set with MKN45 cell (setting [4]), the inhibition at 1 µM came out at 72.8%. Also, in data set [1], the half-maximal inhibitory concentration (IC50) is 0.04 ± 0.04 nM, the inhibition at 0.1 µM came to 70.1%, the inhibition at 1 µM worked out at 80.3% and the inhibition at 10 µM turned out to be 76.5%. Further, the inhibition at 10 µM in data set [2] was determined as 80.9%.
On to `CN(C)C(=O)c1ccc(-c2ccc3ncc(S(=O)(=O)n4ncc5ncc(-c6cnn(C)c6)cc54)n3c2)cc1` [Example 73, 1-{[6-(4-dimethylaminocarbonylphenyl)-imidazo[1,2-a]pyridine]-3-sulfonyl}-6-[(1-methyl)-4-pyrazolyl]-1-H-pyrazolo[4,3-b]pyridine], for which, in the data set with MKN45 cell (setting [5]), the inhibition at 1 µM amounted to 14.4%. In addition, in data set [1], the inhibition at 0.1 µM turned out to be 78%, the inhibition at 1 µM stood at 72.8% and the inhibition at 10 µM is 76.9%. Moreover, in data set [2], the inhibition at 10 µM was 59.6%.
In the same order, the values of `Cn1cc(-c2cnc3cnn(S(=O)(=O)c4cnc5ccc(-c6cnn(C7CCN(C(=O)OC(C)(C)C)CC7)c6)cn45)c3c2)cn1` [Example 76, 1-{(6-{{1-[(1-t-butoxycarbonyl)-4-piperidinyl]}-4-pyrazolyl}-imidazo[1,2-a]pyridine)-3-sulfonyl}-6-[(1-methyl)-4-pyrazolyl]-1-H-pyrazolo[4,3-b]pyridine] are 14.9%, 78%, 75.5%, 78.3% and greater than 76.3%.
Taken in the same sequence, the figures for `Cn1cc(-c2cnc3cnn(S(=O)(=O)c4cnc5ccc(-c6ccc(F)cc6)cn45)c3c2)cn1` [Example 81, 1-{[6-(4-fluorophenyl)-imidazo[1,2-a]pyridine]-3-sulfonyl}-6-[(1-methyl)-4-pyrazolyl]-1-H-pyrazolo[4,3-b]pyridine] were 24.7%, 72.9%, 73.6%, 80.2% and greater than 68.7%.
In the same order, the values of `Cc1ccc(-c2ccc3ncc(S(=O)(=O)n4ncc5ncc(-c6cnn(C)c6)cc54)n3c2)cc1` [Example 90, 1-{[6-(4-methylphenyl)-imidazo[1,2-a]pyridine]-3-sulfonyl}-6-[(1-methyl)-4-pyrazolyl]-1-H-pyrazolo[4,3-b]pyridine] are 17.6%, 69%, 83%, 81.1% and greater than 72.2%.
As for `Cn1cc(-c2cnc3cnn(S(=O)(=O)c4cnc5ccc(-c6ccc(CN7CCOCC7)cc6)cn45)c3c2)cn1` [Example 91, 1-{[6-(4-morpholinomethylphenyl)-imidazo[1,2-a]pyridine]-3-sulfonyl}-6-[(1-methyl)-4-pyrazolyl]-1-H-pyrazolo[4,3-b]pyridine], the inhibition at 1 µM in the data set with MKN45 cell (setting [5]) is 72.9%. Moreover, in data set [1], the inhibition at 0.1 µM is 77.3%, the inhibition at 1 µM amounted to 85.5% and the inhibition at 10 µM amounted to 74.1%. Besides, the inhibition at 10 µM in data set [2] is greater than 69.4%.
Consider `COc1ccccc1-c1ccc2ncc(S(=O)(=O)n3ncc4ncc(-c5cnn(C)c5)cc43)n2c1` [Example 97, 1-{[6-(2-methoxyphenyl)-imidazo[1,2-a]pyridine]-3-sulfonyl}-6-[(1-methyl)-4-pyrazolyl]-1-H-pyrazolo[4,3-b]pyridine], for which the inhibition at 1 µM in the data set with MKN45 cell (setting [4]) was 67.8%. Besides, in data set [1], the IC50 came to 0.5 ± 0.1 nM, the inhibition at 0.1 µM came to 51.7%, the inhibition at 1 µM was 62.7% and the inhibition at 10 µM was 65.5%. In addition, the inhibition at 10 µM in data set [2] was greater than 63.8%.
Regarding `Cn1cc(-c2cnc3cnn(S(=O)(=O)c4cnc5ccc(-c6ccc(F)nc6)cn45)c3c2)cn1` [Example 99, 1-{[6-(2-fluoro-5-pyridinyl)-imidazo[1,2-a]pyridine]-3-sulfonyl}-6-[(1-methyl)-4-pyrazolyl]-1-H-pyrazolo[4,3-b]pyridine], the inhibition at 0.2 µM with MKN45 cell (72 hours) was 48.5%. Further, the inhibition at 1 µM in the data set with MKN45 cell (setting [5]) came out at 67.9%. Further, in data set [1], the inhibition at 0.1 µM came out at 55.5%, the inhibition at 1 µM came out at 66.2% and the inhibition at 10 µM came out at 71.8%. Besides, in data set [2], the inhibition at 10 µM is greater than 73.3%.
As to `Cn1cc(-c2cnc3cnn(S(=O)(=O)c4cnc5ccc(-c6cccc(C#N)c6)cn45)c3c2)cn1` [Example 100, 1-{[6-(3-cyanophenyl)-imidazo[1,2-a]pyridine]-3-sulfonyl}-6-[(1-methyl)-4-pyrazolyl]-1-H-pyrazolo[4,3-b]pyridine], the inhibition at 0.2 µM in the data set on MKN45 cell (72 hours) amounted to 63.8%. In the data set with MKN45 cell (setting [5]), the inhibition at 1 µM amounted to 66.6%. In addition, in data set [1], the inhibition at 0.1 µM was determined as 83.7%, the inhibition at 1 µM is 87.3% and the inhibition at 10 µM was determined as 85.4%. The inhibition at 10 µM in data set [2] is greater than 60.4%.
Turning to `CN1CCN(C(=O)c2ccc(-c3cnc4cnn(S(=O)(=O)c5cnc6ccc(-c7cnn(C)c7)cn56)c4c3)cc2)CC1` [Example 142, 1-{(6-[(1-methyl)-4-pyrazolyl]-imidazo[1,2-a]pyridine)-3-sulfonyl}-6-[4-(4-methylpiperazine-1-carbonyl)phenyl]-1-H-pyrazolo[4,3-b]pyridine], in data set [1], the 50% inhibitory concentration (IC50) is 0.5 ± 0.1 nM, the inhibition at 0.1 µM is 89.4% and the inhibition at 1 µM came to 91.3%. Moreover, in data set [3] (50 mg/kg po qd/21), the “TV (mm^3, mean ± SD) d21” value is 259 ± 421 ^ mm^3 and the “Weight (g) d21” value came to 21.0 g. In data set [3] (50 mg/kg po qd/21, d21), the “GI (%)” value came out at 90.65% and the “RTV (mean ± SD)” value is 2.23 ± 3.89. In addition, in data set [3] (50 mg/kg po qd/21, day 21), the “T/C (%)” value came to 16.91%. Also, in data set [3] (100 mg/kg po qd/21), the “TV (mm^3, mean ± SD) d21” value was 21 ± 34 mm^3 and the “Weight (g) d21” value came out at 20.9 g. For the same compound, in data set [3] (100 mg/kg po qd/21, d21), the “GI (%)” value is recorded as 106.70% and the “RTV (mean ± SD)” value was found to be 0.14 ± 0.21. For the same compound, in data set [3] (100 mg/kg po qd/21, day 21), the “T/C (%)” value amounted to 1.05%. Besides, in the data set on EBC-1 cell, the inhibition at 0.2 µM worked out at 92.1% and the inhibition at 1 µM was found to be 92.6%.
On to `CC(C)N1CCC(n2cc(-c3cnc4cnn(S(=O)(=O)c5cnc6ccc(-c7cnn(C)c7)cn56)c4c3)cn2)CC1` [Example 145, 1-{(6-[(1-methyl)-4-pyrazolyl]-imidazo[1,2-a]pyridine)-3-sulfonyl}-6-{(1-[(1-isopropyl)-4-piperidinyl]}-4-pyrazolyl}-1-H-pyrazolo[4,3-b]pyridine], for which, in data set [1], the IC50 was 0.6 ± 0.1 nM, the inhibition at 0.1 µM worked out at 90.6% and the inhibition at 1 µM is 87.1%. In data set [3] (50 mg/kg po qd/21), the “TV (mm^3, mean ± SD) d21” value is 36 ± 49 mm^3 and the “Weight (g) d21” value is on record as 19.9 g. In addition, in data set [3] (50 mg/kg po qd/21, d21), the “GI (%)” value was 106.14% and the “RTV (mean ± SD)” value is 0.31 ± 0.50. In addition, the “T/C (%)” value in data set [3] (50 mg/kg po qd/21, day 21) worked out at 2.36%. For the same compound, in data set [3] (100 mg/kg po qd/21), the “TV (mm^3, mean ± SD) d21” value amounted to 8 ± 13 mm^3 and the “Weight (g) d21” value is 19.1 g. For the same compound, in data set [3] (100 mg/kg po qd/21, d21), the “GI (%)” value is recorded as 107.77% and the “RTV (mean ± SD)” value was determined as 0.05 ± 0.09. Also, the “T/C (%)” value in data set [3] (100 mg/kg po qd/21, day 21) was determined as 0.40%. Moreover, in the data set on EBC-1 cell, the inhibition at 0.2 µM turned out to be 92.4% and the inhibition at 1 µM amounted to 92.8%.
